Results as given in patent US11420958B2, “Aryl and heteroaryl substituted indole compounds” (BRISTOL-MYERS SQUIBB COMPANY, priority 2017, dated 2022).

What was measured:
Assay type in all cases: cell-based
human TLR7 = human TLR7 (Homo sapiens (Human), UniProt Q9NYK1); assay: TLR7 inhibition reporter assay (HEK-Blue, SEAP); details: HEK-Blue cells overexpressing human TLR7, gardiquimod 7.5 μM stimulation
In short: (§1)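 Cells are treated with compound over a 0.05 nM–50 μM final range for 30 min at room temperature before agonist addition: gardiquimod at 7.5 μM for TLR7, R848 at 15.9 μM for TLR8, ODN2006 at 5 nM for TLR9. SEAP is measured after 22 h at 37 °C.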

human TLR9 = human TLR9 (Homo sapiens (Human), UniProt Q9NR96); assay: TLR9 inhibition reporter assay (HEK-Blue, SEAP); details: HEK-Blue cells overexpressing human TLR9, ODN2006 5 nM stimulation
Chain of human TLR9 (Q9NR96 26-1032): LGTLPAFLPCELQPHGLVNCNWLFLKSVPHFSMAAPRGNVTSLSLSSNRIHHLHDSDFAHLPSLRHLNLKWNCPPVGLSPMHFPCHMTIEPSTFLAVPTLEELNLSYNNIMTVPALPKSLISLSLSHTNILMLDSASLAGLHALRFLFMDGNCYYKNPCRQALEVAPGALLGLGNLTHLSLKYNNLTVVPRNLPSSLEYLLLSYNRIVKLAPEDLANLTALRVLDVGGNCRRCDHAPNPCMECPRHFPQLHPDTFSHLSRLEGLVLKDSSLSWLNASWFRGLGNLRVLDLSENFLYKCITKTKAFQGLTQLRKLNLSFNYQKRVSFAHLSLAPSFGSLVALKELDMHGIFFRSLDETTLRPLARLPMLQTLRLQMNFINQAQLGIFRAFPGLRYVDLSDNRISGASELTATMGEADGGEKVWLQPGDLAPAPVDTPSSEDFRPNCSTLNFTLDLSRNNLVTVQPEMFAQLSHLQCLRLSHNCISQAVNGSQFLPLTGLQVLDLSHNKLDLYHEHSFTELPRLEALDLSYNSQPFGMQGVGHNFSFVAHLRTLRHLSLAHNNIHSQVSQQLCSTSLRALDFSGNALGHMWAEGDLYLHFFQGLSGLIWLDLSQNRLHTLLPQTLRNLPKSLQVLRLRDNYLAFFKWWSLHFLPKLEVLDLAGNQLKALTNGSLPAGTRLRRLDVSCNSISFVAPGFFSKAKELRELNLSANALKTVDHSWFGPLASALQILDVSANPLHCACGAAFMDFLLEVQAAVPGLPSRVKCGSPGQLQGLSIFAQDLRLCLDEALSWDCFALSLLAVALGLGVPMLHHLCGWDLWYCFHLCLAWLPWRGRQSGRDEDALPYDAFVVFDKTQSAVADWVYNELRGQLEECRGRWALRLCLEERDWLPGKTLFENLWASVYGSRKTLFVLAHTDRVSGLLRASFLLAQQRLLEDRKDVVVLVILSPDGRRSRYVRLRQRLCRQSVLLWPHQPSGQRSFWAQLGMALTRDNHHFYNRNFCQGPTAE
In short: as §1

human TLR8 = human TLR8 (Homo sapiens (Human), UniProt Q9NR97); assay: TLR8 inhibition reporter assay (HEK-Blue, SEAP); details: HEK-Blue cells overexpressing human TLR8, R848 15.9 μM stimulation
Chain of human TLR8 (Q9NR97 27-1041): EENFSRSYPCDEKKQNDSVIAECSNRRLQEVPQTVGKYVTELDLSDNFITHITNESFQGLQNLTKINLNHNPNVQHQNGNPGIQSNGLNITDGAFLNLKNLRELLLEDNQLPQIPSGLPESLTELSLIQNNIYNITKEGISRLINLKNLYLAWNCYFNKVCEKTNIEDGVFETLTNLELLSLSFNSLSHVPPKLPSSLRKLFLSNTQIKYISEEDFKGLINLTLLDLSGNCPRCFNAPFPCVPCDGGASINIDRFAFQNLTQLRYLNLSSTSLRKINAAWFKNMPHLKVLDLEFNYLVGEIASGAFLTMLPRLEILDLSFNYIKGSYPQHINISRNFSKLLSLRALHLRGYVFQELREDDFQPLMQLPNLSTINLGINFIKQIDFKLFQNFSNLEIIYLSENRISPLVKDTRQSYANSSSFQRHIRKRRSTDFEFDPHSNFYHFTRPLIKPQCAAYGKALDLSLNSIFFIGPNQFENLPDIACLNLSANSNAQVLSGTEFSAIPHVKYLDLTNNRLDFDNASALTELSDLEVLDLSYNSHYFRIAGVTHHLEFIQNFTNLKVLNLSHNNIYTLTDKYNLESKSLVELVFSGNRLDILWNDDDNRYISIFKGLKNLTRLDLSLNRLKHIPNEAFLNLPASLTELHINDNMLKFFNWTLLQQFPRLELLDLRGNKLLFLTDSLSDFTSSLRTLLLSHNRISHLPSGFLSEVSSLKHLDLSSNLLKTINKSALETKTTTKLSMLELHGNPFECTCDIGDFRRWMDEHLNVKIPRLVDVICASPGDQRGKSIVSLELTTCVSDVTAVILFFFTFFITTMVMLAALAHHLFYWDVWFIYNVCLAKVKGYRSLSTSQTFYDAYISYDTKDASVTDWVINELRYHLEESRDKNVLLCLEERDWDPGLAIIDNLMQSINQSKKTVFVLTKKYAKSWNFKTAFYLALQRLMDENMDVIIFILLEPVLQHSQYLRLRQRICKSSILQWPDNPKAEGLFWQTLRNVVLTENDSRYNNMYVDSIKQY
In short: as §1

Chain of human TLR7 (Q9NYK1 27-1049): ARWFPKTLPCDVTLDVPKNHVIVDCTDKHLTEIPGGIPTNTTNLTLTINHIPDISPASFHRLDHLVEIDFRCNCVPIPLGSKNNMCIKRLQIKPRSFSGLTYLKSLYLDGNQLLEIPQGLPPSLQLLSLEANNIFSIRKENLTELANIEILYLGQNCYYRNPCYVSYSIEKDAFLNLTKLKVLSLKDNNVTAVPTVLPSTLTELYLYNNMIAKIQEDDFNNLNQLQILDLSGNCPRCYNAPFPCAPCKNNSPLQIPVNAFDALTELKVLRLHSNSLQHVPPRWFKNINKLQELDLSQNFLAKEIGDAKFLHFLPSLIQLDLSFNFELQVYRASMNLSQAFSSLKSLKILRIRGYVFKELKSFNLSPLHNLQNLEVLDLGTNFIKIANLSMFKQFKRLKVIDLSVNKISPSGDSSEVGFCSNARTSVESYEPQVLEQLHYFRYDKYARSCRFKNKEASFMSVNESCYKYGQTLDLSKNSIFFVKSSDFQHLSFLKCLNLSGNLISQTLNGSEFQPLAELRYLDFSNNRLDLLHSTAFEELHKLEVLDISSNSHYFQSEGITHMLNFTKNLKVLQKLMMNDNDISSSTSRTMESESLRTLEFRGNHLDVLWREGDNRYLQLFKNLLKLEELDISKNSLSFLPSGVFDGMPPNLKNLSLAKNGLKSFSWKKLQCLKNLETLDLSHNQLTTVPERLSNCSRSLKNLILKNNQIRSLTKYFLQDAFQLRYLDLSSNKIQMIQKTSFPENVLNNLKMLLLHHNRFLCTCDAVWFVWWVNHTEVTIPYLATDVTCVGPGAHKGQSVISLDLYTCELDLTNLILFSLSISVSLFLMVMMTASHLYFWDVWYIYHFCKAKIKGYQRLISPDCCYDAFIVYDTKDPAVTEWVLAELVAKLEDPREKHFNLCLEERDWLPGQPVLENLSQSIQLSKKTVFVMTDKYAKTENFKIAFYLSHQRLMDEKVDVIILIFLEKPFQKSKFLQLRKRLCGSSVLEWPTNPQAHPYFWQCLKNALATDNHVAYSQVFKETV

| IC50 (human TLR7) [nM] | IC50 (human TLR9) [nM] | IC50 (human TLR8) [nM] | SMILES |
| --- | --- | --- | --- |
| 1040 | > 50000 | 340 | COc1ccc(-c2[nH]c3ccc(-c4nnc(CC(F)(F)F)o4)cc3c2C(C)C)cc1OC [Example 64, 2-(2-(3,4-dimethoxyphenyl)-3-isopropyl-1H-indol-5-yl)-5-(2,2,2-trifluoroethyl)-1,3,4-oxadiazole] |
| 903 | 4580 | 90 | CCc1c(-c2ccc(OC)c(OC)c2)[nH]c2ccc(-c3noc([C@H]4CCC[C@@]4(C)N)n3)cc12 [Example 442, (1R,2S)-2-(3-(2-(3,4-dimethoxyphenyl)-3-ethyl-1H-indol-5-yl)-1,2,4-oxadiazol-5-yl)-1-methylcyclopentan-1-amine] |
| 37 | 739 | 17 | Cc1cc(-c2[nH]c3ccc(-c4ccc(C(=O)N5CCC(NC(C)C)CC5)cc4)cc3c2C(C)C)ccn1 [Example 321, (4-(3-isopropyl-2-(2-methylpyridin-4-yl)-1H-indol-5-yl)phenyl)(4-(isopropylamino)piperidin-1-yl)methanone] |
| 45 | 304 | 22 | Cc1cc(-c2[nH]c3ccc(-c4ccc(N5CCN(C)CC5)nc4)cc3c2C(C)C)ccn1 [Example 253, 3-isopropyl-5-(6-(4-methylpiperazin-1-yl)pyridin-3-yl)-2-(2-methylpyridin-4-yl)-1H-indole] |

Further lines, the molecule ahead of its results:

| SMILES | IC50 (human TLR7) [nM] | IC50 (human TLR9) [nM] | IC50 (human TLR8) [nM] |
| --- | --- | --- | --- |
| Cc1cc(-c2[nH]c3ccc(-c4cc(NC(=O)OC(C)(C)C)c5nccn5c4)cc3c2C(C)C)cc(C)n1 [Example 303, tert-butyl (6-(2-(2,6-dimethylpyridin-4-yl)-3-isopropyl-1H-indol-5-yl)imidazo[1,2-a]pyridin-8-yl)carbamate] | 172 | 33400 | 163 |
| Cc1cc(-c2[nH]c3ccc(-c4nnc(CC(C)N)o4)cc3c2C(C)C)ccn1 (stereo not drawn) [Example 259, 1-(5-(3-isopropyl-2-(2-methylpyridin-4-yl)-1H-indol-5-yl)-1,3,4-oxadiazol-2-yl)propan-2-amine] | 26 | 876 | 5.5 |
| COc1ccc(-c2[nH]c3ccc(-c4cccc(C(=O)NCCC5CCCN5C)c4)cc3c2CC(F)(F)F)cc1OC (stereo not drawn) [Example 25, 3-(2-(3,4-dimethoxyphenyl)-3-(2,2,2-trifluoroethyl)-1H-indol-5-yl)-N-(2-(1-methylpyrrolidin-2-yl)ethyl)benzamide] | 190 | 1380 | 88 |
| COc1ccc(-c2[nH]c3ccc(-c4ccnc(C(=O)N5CCCN(C)CC5)c4)cc3c2C(C)C)cc1OC [Example 10, (4-(2-(3,4-dimethoxyphenyl)-3-isopropyl-1H-indol-5-yl)pyridin-2-yl)(4-methyl-1,4-diazepan-1-yl)methanone] | 35 | 673 | 6 |
| COc1ccc(-c2[nH]c3ccc(-c4cccc(C(=O)N5CCN(c6ccncc6)CC5)c4)cc3c2CC(F)(F)F)cc1OC [Example 36, (3-(2-(3,4-dimethoxyphenyl)-3-(2,2,2-trifluoroethyl)-1H-indol-5-yl)phenyl)(4-(pyridin-4-yl)piperazin-1-yl)methanone] | 287 | 1800 | 102 |
| COc1ccc(-c2[nH]c3ccc(-c4cccc(C(=O)N5CC6CNCC6C5)c4)cc3c2CC(F)(F)F)cc1OC (stereo not drawn) [Example 42, (3-(2-(3,4-dimethoxyphenyl)-3-(2,2,2-trifluoroethyl)-1H-indol-5-yl)phenyl)(hexahydropyrrolo[3,4-c]pyrrol-2(1H)-yl)methanone] | 448 | 710 | 27 |
| Cc1cn2cc(-c3[nH]c4ccc(-c5ccc(N6CCN(C)CC6)nc5)cc4c3C(C)C)ccc2n1 [Example 333, 6-(3-isopropyl-5-(6-(4-methylpiperazin-1-yl)pyridin-3-yl)-1H-indol-2-yl)-2-methylimidazo[1,2-a]pyridine] | 14 | 114 | 91 |
